Source: ChEMBL document CHEMBL1201862, “PubChem BioAssay data set” (2004)
Activity calls are given as the source filed them.

Experiments:
[1] = Luminescence Cell-Based Dose Retest to Confirm Inhibitors of Cancer Stem Cells. [Related pubchem assays (depositor defined):AID2717, AID2721]; assay type: functional; conditions: Homo sapiens
[2] = viability loss of HMLE_sh_eGFP cells – cell-based, luminescence, counter-screen for HMLE_sh_ECad selective toxicity project, dose response (AID 463074); assay type: functional, Homo sapiens;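 further: HMLE human mammary epithelial cells expressing control shRNA against eGFP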
[3] = Vero E6 cell cytotoxicity, dose response, cytotoxicity control for non-replicating M. tuberculosis project, secondary assay (AID 492998); assay type: functional, VeroE6; conditions: Vero C1008
[4] = THP-1 cell cytotoxicity, dose response, cytotoxicity control for non-replicating M. tuberculosis project (AID 489025); assay type: functional
[5] = Counterscreen for AddAB inhibitors: absorbance-based bacterial cell-based high throughput dose response assay for inhibitors of bacterial viability. [Related pubchem assays (depositor defined):AID435030, AID449728, AID449731, AID488942, AID488955, AID488956]; assay type: functional
Exodeoxyribonuclease V = target: T1, Exodeoxyribonuclease V (Escherichia coli (strain K12), UniProt P04993+P07648+P08394); experiment: RecBCD inhibition via phage-restricted bacterial growth – absorbance, V66 E. coli, mutant T4 phage, counter-screen for AddAB inhibitor project, dose response (AID 492957); assay type: functional, cell-based, Escherichia coli str. K-12 substr. MG1655
T1 sequence (P04993 whole entry): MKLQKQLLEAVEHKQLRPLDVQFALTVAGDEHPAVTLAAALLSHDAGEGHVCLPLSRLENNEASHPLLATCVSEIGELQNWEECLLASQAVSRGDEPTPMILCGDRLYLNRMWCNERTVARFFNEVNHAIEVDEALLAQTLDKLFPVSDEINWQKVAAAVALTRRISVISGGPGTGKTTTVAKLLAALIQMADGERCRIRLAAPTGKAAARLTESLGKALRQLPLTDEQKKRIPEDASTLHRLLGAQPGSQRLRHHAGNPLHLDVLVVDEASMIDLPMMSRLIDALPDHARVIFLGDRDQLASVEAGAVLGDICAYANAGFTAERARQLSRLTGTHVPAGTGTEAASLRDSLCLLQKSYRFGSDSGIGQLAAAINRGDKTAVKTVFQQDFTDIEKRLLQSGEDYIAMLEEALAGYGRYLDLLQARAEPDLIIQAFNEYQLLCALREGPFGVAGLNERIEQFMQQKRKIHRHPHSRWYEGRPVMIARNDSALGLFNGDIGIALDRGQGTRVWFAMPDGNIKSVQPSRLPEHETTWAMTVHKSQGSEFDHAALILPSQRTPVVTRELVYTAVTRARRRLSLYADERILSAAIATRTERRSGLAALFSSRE
T1 sequence (P07648 whole entry): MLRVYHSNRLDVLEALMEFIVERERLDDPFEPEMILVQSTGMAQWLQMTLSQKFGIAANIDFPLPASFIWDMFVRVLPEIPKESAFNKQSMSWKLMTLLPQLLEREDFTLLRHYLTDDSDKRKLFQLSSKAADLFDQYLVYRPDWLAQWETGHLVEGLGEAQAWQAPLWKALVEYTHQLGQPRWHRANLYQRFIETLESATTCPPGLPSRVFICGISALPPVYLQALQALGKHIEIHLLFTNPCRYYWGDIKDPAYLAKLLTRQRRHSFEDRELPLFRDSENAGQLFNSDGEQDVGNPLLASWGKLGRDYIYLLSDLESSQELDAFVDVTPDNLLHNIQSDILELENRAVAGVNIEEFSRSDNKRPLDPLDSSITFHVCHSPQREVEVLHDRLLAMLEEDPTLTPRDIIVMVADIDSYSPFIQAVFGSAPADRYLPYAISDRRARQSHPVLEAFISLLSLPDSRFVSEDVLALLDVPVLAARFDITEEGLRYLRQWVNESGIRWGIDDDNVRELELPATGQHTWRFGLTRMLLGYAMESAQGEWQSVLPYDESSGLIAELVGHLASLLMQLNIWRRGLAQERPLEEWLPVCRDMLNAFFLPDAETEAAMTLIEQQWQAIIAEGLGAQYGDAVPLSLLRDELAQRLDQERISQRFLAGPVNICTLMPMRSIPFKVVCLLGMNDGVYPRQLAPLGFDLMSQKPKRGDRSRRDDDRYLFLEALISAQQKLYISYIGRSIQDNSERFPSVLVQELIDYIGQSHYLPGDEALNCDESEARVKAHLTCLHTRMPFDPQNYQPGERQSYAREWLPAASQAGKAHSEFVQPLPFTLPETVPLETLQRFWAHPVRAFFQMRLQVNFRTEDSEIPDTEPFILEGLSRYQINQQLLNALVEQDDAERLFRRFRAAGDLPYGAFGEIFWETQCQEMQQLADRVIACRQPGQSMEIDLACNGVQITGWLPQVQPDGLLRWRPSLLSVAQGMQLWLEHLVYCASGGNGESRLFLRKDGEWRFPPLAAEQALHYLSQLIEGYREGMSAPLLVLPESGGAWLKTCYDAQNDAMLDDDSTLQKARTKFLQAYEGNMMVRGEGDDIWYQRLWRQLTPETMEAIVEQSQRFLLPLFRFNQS
T1 sequence (P08394 whole entry): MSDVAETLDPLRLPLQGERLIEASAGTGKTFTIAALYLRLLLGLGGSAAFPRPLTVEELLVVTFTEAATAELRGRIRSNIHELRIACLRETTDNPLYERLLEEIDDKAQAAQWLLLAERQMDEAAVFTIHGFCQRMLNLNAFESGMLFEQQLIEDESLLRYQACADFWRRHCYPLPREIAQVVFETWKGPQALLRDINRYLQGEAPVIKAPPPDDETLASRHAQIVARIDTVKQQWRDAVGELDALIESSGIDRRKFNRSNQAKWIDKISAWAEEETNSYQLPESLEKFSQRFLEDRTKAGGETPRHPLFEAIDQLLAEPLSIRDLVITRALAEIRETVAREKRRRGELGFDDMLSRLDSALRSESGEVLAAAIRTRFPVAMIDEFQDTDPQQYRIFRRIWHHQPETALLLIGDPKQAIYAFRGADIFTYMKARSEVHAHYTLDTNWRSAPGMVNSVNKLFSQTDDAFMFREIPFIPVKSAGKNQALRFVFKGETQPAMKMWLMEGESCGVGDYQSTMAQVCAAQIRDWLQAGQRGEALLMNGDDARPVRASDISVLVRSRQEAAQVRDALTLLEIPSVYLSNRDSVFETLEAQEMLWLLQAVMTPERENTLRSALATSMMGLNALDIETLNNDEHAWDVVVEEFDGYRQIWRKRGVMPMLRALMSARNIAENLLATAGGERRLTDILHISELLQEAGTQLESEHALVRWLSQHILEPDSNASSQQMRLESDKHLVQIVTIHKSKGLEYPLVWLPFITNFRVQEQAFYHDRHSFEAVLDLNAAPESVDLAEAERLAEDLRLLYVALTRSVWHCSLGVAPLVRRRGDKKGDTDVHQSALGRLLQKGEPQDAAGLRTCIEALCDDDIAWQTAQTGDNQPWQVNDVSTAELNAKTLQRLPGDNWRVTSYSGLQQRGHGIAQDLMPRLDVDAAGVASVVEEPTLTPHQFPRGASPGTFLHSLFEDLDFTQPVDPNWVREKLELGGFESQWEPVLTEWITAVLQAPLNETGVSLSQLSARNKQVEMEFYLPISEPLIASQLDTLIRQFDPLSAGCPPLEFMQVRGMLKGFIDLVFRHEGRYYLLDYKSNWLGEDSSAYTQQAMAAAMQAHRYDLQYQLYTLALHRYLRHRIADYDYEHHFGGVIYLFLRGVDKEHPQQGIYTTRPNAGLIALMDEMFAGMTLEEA

cells = assay type: functional
Streptococcus = experiment: GAS UMAA2166 growth inhibition – luminescence, BacTiterGlo, counter-screen for streptokinase expression inhibitor project, dose response (AID 1915); assay type: functional, organism-based;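 further: potency for reduction of bacterial viability or growth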
[6] = test system: Streptococcus sp. 'group A'; experiment: Streptococcus pyogenes SK(-)GAS viability under kanamycin – luminescence, BacTiterGlo, confirmation, counter-screen for streptokinase expression inhibitor project, dose response (AID 1900); assay type: functional, organism-based
[7] = Trypanosoma cruzi growth suppression in host cells – NIH3T3 host cells, beta-gal luminescence, confirmation (AID 2044); assay type: functional, cell-based;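 further: intracellular parasites grown in NIH/3T3 mouse fibroblasts as host cells; luminescent beta-galactosidase reporter signal from transgenic T. cruzi replicating inside host cells; inhibitors lower the luminescence signal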
Streptokinase A = target: T2, Streptokinase A (Streptococcus pyogenes serotype M1, UniProt P10520); experiment: viability-normalized secreted streptokinase activity reduction – plasminogen activation absorbance, OD405, dose response (AID 1914); assay type: functional, Streptococcus pyogenes M1 GAS;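 further: secreted streptokinase activity via plasminogen activation per viability signal from cell pellet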
T2 sequence (P10520 whole entry): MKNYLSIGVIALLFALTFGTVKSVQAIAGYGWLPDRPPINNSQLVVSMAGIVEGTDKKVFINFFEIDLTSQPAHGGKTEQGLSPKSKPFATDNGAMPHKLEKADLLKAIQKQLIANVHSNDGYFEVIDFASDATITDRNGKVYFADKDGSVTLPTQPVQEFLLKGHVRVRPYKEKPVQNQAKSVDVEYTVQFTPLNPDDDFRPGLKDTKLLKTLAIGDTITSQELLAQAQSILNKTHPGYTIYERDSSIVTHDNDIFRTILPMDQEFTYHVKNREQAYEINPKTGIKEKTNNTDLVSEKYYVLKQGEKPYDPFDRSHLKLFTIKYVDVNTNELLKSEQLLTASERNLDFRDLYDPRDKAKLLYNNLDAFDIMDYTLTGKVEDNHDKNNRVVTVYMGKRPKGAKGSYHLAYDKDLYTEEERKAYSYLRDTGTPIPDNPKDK

[8] = target: Heat shock protein HSP 90-alpha (Homo sapiens, UniProt P07900); assay type: functional, organism-based
[9] = NIH3T3 cell viability loss – ATP luminescence, mouse fibroblasts, counter-screen, dose response (AID 2010); assay type: functional, cell-based;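 further: cells exposed to compound for about 90 hours before reading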
[10] = target: Glucose-6-phosphate 1-dehydrogenase (Homo sapiens, UniProt P11413); experiment: inhibition of Homo sapiens G6PD, dose series – biochemical, fluorescence, selectivity assay for P. falciparum G6PD inhibitor project, dose response (AID 504792); assay type: functional
[11] = target: FAD-linked sulfhydryl oxidase ALR (Homo sapiens, UniProt P55789); experiment: ALR-catalysed DTT oxidation blockers – biochemical, H2O2 detection, luminescence, cherry-pick, dose response (AID 493248)
[12] = target: T3, Heat shock factor protein 1 (Mus musculus, UniProt P38532); experiment: decrease of HSF1-responsive luciferase luminescence – cell-based, NIH3T3, dose retest, confirmation (AID 2382); assay type: functional;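 further: NIH3T3 fibroblasts with HSF1-driven luciferase reporter stressed by proteasome inhibitor MG132; luminescence from HSF1-driven luciferase expression after 8 hours of MG132 stress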
T3 sequence (P38532 whole entry): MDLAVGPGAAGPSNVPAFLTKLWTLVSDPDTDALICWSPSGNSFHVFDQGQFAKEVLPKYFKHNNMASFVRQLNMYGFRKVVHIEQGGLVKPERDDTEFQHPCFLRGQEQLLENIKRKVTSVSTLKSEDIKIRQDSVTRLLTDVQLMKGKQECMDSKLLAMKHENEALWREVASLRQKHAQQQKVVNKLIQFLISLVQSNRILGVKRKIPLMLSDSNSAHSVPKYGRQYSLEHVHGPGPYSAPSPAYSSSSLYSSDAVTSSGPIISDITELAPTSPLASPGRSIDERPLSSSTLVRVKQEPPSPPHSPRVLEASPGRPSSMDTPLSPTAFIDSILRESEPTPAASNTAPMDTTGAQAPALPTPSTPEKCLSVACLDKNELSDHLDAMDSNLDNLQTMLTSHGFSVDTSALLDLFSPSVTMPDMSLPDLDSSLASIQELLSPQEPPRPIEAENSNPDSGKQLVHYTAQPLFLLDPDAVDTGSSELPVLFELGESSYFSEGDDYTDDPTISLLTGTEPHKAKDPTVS

Sequence of FAD-linked sulfhydryl oxidase ALR (P55789 whole entry): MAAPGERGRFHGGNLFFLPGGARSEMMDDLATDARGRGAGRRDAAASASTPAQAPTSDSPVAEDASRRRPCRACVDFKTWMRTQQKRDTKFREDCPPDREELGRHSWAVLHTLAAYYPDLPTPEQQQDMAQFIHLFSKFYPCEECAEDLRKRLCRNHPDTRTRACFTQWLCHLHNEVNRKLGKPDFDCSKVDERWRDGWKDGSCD
Sequence of Glucose-6-phosphate 1-dehydrogenase (P11413 whole entry): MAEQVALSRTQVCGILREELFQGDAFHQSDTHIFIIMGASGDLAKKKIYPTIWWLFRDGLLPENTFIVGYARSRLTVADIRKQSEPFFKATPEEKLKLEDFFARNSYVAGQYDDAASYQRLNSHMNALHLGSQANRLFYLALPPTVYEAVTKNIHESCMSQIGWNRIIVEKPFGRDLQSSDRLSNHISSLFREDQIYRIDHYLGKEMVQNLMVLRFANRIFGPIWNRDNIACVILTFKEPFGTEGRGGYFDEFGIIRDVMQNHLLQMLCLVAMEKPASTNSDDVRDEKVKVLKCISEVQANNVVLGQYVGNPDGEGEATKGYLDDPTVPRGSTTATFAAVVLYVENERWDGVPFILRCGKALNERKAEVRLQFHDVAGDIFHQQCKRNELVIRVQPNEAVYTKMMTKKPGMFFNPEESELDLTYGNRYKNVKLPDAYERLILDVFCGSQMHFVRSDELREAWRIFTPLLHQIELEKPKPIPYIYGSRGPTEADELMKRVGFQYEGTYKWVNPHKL

SMILES: CCN(CC)CCNCc1ccc(-c2ccc(Cl)cc2)o1
- AC50 [1]: 8.94 µM (active)
- AC50 [2]: 20.9 µM (active)

SMILES: NC(=NOC(=O)c1ccccc1Cl)c1ncc([N+](=O)[O-])s1
- CC50 [3]: > 20 µM (active)
- CC50 [4]: 34.4 µM (active)
- IC50 [5]: > 119 µM (inactive)
- IC50 (Exodeoxyribonuclease V): > 119 µM (inactive)
- IC50 (cells): 3.81 µM (active)

SMILES: CCCC(=O)NC(c1ccco1)c1cc(Cl)c2cccnc2c1O (configuration not stated)
- EC50 (Streptococcus): 32 µM (active)
- EC50 [6]: 1.18 µM (active)
- EC50 [7]: 3.44 µM (active)
- IC50 [5]: > 119 µM (inactive)
- IC50 (Exodeoxyribonuclease V): > 119 µM (inactive)
- EC50 (Streptokinase A): > 150 µM (not active)
- AC50 [8]: 4.25 µM (active)
- EC50 [9]: 5.04 µM (active)

SMILES: COc1ccc(CCNC(=O)c2cc(-c3ccc(Cl)c(Cl)c3)oc2C)cc1
- EC50 (Streptococcus): 22.4 µM (active)
- EC50 [6]: 7.72 µM (active)
- AC50 [1]: 3.04 µM (active)
- EC50 (Streptokinase A): 6.21 µM (inconclusive)
- AC50 [2]: 48.4 µM (active)

SMILES: Oc1ccc(C23CC4CC(CC(C4)C2)C3)cc1O
- IC50 [10]: > 80 µM (inactive)
- AC50 [11]: 4.17 µM (active)

SMILES: COc1ccc2nc(NC(=O)CCNC(=O)c3ccco3)sc2c1
- IC50 [5]: > 119 µM (inactive)
- IC50 (Exodeoxyribonuclease V): > 119 µM (inactive)

SMILES: CC(C)(C)c1ccc2c(c1)OC(C(=O)N/N=C\c1ccc[nH]1)CO2 (configuration not stated)
- AC50 [1]: 1.94 µM (active)
- EC50 [12]: 436 nM (active)
- AC50 [2]: 23 µM (active)
